For this data set, the system named is rodent carcinogenicity bioassays, tumor incidence. The data set can be described thus: CCRIS carcinogenicity studies. The note with it: Dose: 0, Dose: 0. In outline:
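NCI-built, expert-reviewed records of carcinogenicity and related test outcomes (mutagenicity, tumor promotion/inhibition) compiled from published and report sources, historical span 1985-2011, not updated.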

Active and inactive are the calls of the source. The rule behind the calls is not given here.

Take `Cc1ccccc1[N+](=O)[O-]`: the carcinogen call is “active; positive” (Species: MOUSE, Strain/Sex: B6C3F1/FEMALE, Route: ORAL, 1250, 2500, 5000 PPM IN DIET FOR 105 WK (STUDY DURATION: 105 WK), 1250, 2500, 5000 PPM IN DIET FOR 105 WK (STUDY DURATION: 105 WK), Tumor Site: Type of Lesion: CIRCULATORY SYSTEM: HEMANGIOSARCOMA, LARGE INTESTINE (CECUM): CARCINOMA, LIVER: HEPATOCELLULAR ADENOMA, HEPATOCELLULAR C, Tumor Site: Type of Lesion: CIRCULATORY SYSTEM: HEMANGIOSARCOMA, LARGE INTESTINE (CECUM): CARCINOMA, LIVER: HEPATOCELLULAR ADENOMA, HEPATOCELLULAR C); “active; positive” (Species: MOUSE, Strain/Sex: B6C3F1/MALE, Route: ORAL, 1250, 2500, 5000 PPM IN DIET FOR 105 WK (STUDY DURATION: 105 WK), 1250, 2500, 5000 PPM IN DIET FOR 105 WK (STUDY DURATION: 105 WK), Tumor Site: Type of Lesion: CIRCULATORY SYSTEM: HEMANGIOSARCOMA, LARGE INTESTINE (CECUM): CARCINOMA); “active; positive” (Species: RAT, Strain/Sex: F344/FEMALE, Route: ORAL, 625, 1250, 2000 PPM IN DIET FOR 105 WK (STUDY DURATION: 105 WK), 625, 1250, 2000 PPM IN DIET FOR 105 WK (STUDY DURATION: 105 WK), Tumor Site: Type of Lesion: SKIN (SUBCUTANEOUS): FIBROMA, FIBROMA OR FIBROSARCOMA, MAMMARY GLAND: FIBROADENOMA: LIVER: HEPATOCELLULAR ADENOMA); “active; positive” (Species: RAT, Strain/Sex: F344/MALE, Route: ORAL, 625, 1250, 2000 PPM IN DIET FOR 105 WK (STUDY DURATION: 105 WK), 625, 1250, 2000 PPM IN DIET FOR 105 WK (STUDY DURATION: 105 WK), Tumor Site: Type of Lesion: MESOTHELIUM: MALIGNANT MESOTHELIOMA, SKIN (SUBCUTANEOUS): LIPOMA, FIBROMA, FIBROSARCOMA, FIBROMA OR FIBROSARCOMA, MAMMAR, Tumor Site: Type of Lesion: MESOTHELIUM: MALIGNANT MESOTHELIOMA, SKIN (SUBCUTANEOUS): LIPOMA, FIBROMA, FIBROSARCOMA, FIBROMA OR FIBROSARCOMA, MAMMAR); “active; positive” (Species: RAT, Strain/Sex: F344/MALE, Route: ORAL, 2000, 5000 PPM IN DIET FOR FIRST 3 MO (STUDY DURATION: 105 WK), 2000, 5000 PPM IN DIET FOR FIRST 3 MO (STUDY DURATION: 105 WK), Tumor Site: Type of Lesion: LIVER: HEPATOCELLULAR ADENOMA OR CARCINOMA, CHOLANGIOCARCINOMA: LUNG: ALVEOLAR/BRONCHIOLAR ADENOMA, ALVEOLAR/BRONCHIOLAR).

Consider `COC(=O)c1ccc(CNS(C)(=O)=O)cc1S(=O)(=O)NC(=O)Nc1nc(OC)cc(OC)n1`, for which the carcinogen call reads like this: (Species: Mouse, Strain/Sex: CD-1/Female (60/Group), Route: Oral, 13.9, 129.8, 1356 mg/kg/day of 94.6-95.3% mesosulfuron-methyl in diet for 18 mo, study duration 18 mo, 13.9, 129.8, 1356 mg/kg/day of 94.6-95.3% mesosulfuron-methyl in diet for 18 mo, study duration 18 mo) “inactive; negative”; (Species: Mouse, Strain/Sex: CD-1/Male (60/Group), Route: Oral, 10.6, 102.8, 1069 mg/kg/day of 94.6-95.3% mesosulfuron-methyl in diet for 18 mo, study duration 18 mo, 10.6, 102.8, 1069 mg/kg/day of 94.6-95.3% mesosulfuron-methyl in diet for 18 mo, study duration 18 mo) “inactive; negative”; (Species: Rat, Strain/Sex: Hoe:WISK(SPF71)/Female (50/Group), Route: Oral, 9.39, 94.7, 952.3 mg/kg/day of 94.6% mesosulfuron-methyl in diet for 24 mo, study duration 24 mo, 9.39, 94.7, 952.3 mg/kg/day of 94.6% mesosulfuron-methyl in diet for 24 mo, study duration 24 mo) “inactive; negative”; (Species: Rat, Strain/Sex: Hoe:WISK(SPF71)/Male (50/Group), Route: Oral, 7.46, 73.8, 764.0 mg/kg/day of 94.6% mesosulfuron-methyl in diet for 24 mo, study duration 24 mo, 7.46, 73.8, 764.0 mg/kg/day of 94.6% mesosulfuron-methyl in diet for 24 mo, study duration 24 mo) “inactive; negative”.

In the case of `CCCCOCCO`, the carcinogen call was “active; positive” (Species: MOUSE, Strain/Sex: B6C3F1/FEMALE, Route: INHALATION, 62.5, 125, 250 PPM 6 HR/D 5D/WK FOR 104 WK (STUDY DURATION: 104 WK), 62.5, 125, 250 PPM 6 HR/D 5D/WK FOR 104 WK (STUDY DURATION: 104 WK), Tumor Site: Type of Lesion: FORESTOMACH: SQUAMOUS CELL PAPILLOMA OR CARCINOMA); “active; positive” (Species: MOUSE, Strain/Sex: B6C3F1/MALE, Route: INHALATION, 62.5, 125, 250 PPM 6 HR/D 5D/WK FOR 104 WK (STUDY DURATION: 104 WK), 62.5, 125, 250 PPM 6 HR/D 5D/WK FOR 104 WK (STUDY DURATION: 104 WK), Tumor Site: Type of Lesion: LIVER: HEMANGIOSARCOMA, HEPATOCELLULAR CARCINOMA); “equivocal” (Species: RAT, Strain/Sex: F344/FEMALE, Route: INHALATION, 31.2, 62.5, 125 PPM 6 HR/D 5D/WK FOR 104 WK (STUDY DURATION: 104 WK), 31.2, 62.5, 125 PPM 6 HR/D 5D/WK FOR 104 WK (STUDY DURATION: 104 WK), Tumor Site: Type of Lesion: ADRENAL MEDULLA: BENIGN OR MALIGNANT PHEOCHROMOCYTOMA); “inactive; negative” (Species: RAT, Strain/Sex: F344/MALE, Route: INHALATION, 31.2, 62.5, 125 PPM 6 HR/D 5D/WK FOR 104 WK (STUDY DURATION: 104 WK), 31.2, 62.5, 125 PPM 6 HR/D 5D/WK FOR 104 WK (STUDY DURATION: 104 WK)).

Regarding `C[N+](=O)[O-]`, the carcinogen call runs as follows: (Species: GUPPIE, Strain/Sex: FEMALE, Route: AQUARIUM WATER, 10, 30, 70 MG/L FOR 16 MO (STUDY DURATION: 16 MO), 10, 30, 70 MG/L FOR 16 MO (STUDY DURATION: 16 MO)) “inactive; negative”; (Species: MEDAKA, Strain/Sex: FEMALE, Route: AQUARIUM WATER, 10, 20, 40 MG/L FOR 13 MO (STUDY DURATION: 13 MO), 10, 20, 40 MG/L FOR 13 MO (STUDY DURATION: 13 MO)) “inactive; negative”; (Species: MEDAKA, Strain/Sex: MALE, Route: AQUARIUM WATER, 10, 20, 40 MG/L FOR 13 MO (STUDY DURATION: 13 MO), 10, 20, 40 MG/L FOR 13 MO (STUDY DURATION: 13 MO)) “inactive; negative”; (Species: MOUSE, Strain/Sex: B6C3F1/FEMALE, Route: INHALATION, 188, 375, 750 PPM 6 HR/D 5 D/WK FOR 103 WK (STUDY DURATION: 105 WK), 188, 375, 750 PPM 6 HR/D 5 D/WK FOR 103 WK (STUDY DURATION: 105 WK), Tumor Site: Type of Lesion: HARDERIAN GLAND: ADENOMA, LIVER: HEPATOCELLULAR ADENOMA, LUNG: ALVEOLAR/BRONCHIOLAR ADENOMA, ALVEOLAR/BRONCHIOLAR CARCIN, Tumor Site: Type of Lesion: HARDERIAN GLAND: ADENOMA, LIVER: HEPATOCELLULAR ADENOMA, LUNG: ALVEOLAR/BRONCHIOLAR ADENOMA, ALVEOLAR/BRONCHIOLAR CARCIN) “active; positive”; (Species: MOUSE, Strain/Sex: B6C3F1/MALE, Route: INHALATION, 188, 375, 750 PPM 6 HR/D 5 D/WK FOR 103 WK (STUDY DURATION: 105 WK), 188, 375, 750 PPM 6 HR/D 5 D/WK FOR 103 WK (STUDY DURATION: 105 WK), Tumor Site: Type of Lesion: HARDERIAN GLAND: CARCINOMA, ADENOMA, LUNG: ALVEOLAR/BRONCHIOLAR CARCINOMA) “active; positive”; (Species: RAT, Strain/Sex: F344/FEMALE, Route: INHALATION, 94, 188, 375 PPM 6 HR/D 5 D/WK FOR 103 WK (STUDY DURATION: 104 WK), 94, 188, 375 PPM 6 HR/D 5 D/WK FOR 103 WK (STUDY DURATION: 104 WK), Tumor Site: Type of Lesion: MAMMARY GLAND: FIBROADENOMA, CARCINOMA) “active; positive”. In addition, the carcinogen call reads like this: (Species: RAT, Strain/Sex: F344/MALE, Route: INHALATION, 94, 188, 375 PPM 6 HR/D 5 D/WK FOR 103 WK (STUDY DURATION: 104 WK), 94, 188, 375 PPM 6 HR/D 5 D/WK FOR 103 WK (STUDY DURATION: 104 WK)) “inactive; negative”; (Species: RAT, Strain/Sex: LONG-EVANS/FEMALE, Route: INHALATION, 100, 200 PPM 7 HR/D 5 D/WK FOR 2 YR (STUDY DURATION: 2 YR), 100, 200 PPM 7 HR/D 5 D/WK FOR 2 YR (STUDY DURATION: 2 YR)) “inactive; negative”; (Species: RAT, Strain/Sex: LONG-EVANS/MALE, Route: INHALATION, 100, 200 PPM 7 HR/D 5 D/WK FOR 2 YR (STUDY DURATION: 2 YR), 100, 200 PPM 7 HR/D 5 D/WK FOR 2 YR (STUDY DURATION: 2 YR)) “inactive; negative”.
